According to article PMC12328707, “Potassium binding by carbonyl clusters, halophilic adaptation and catalysis of Haloferax mediterranei D-2-hydroxyacid dehydrogenase” (Communications Biology, 2025):

Target: T1, D2HDH (Haloferax mediterranei, UniProt Q2VEQ7)
T1 construct: gene ddh; homodimer (~66 kDa; 79 kDa by gel filtration); residues 1-308; no tag mentioned
Assay: X-ray crystal structure, […] Å
Assay type: binding
Conditions: formed by turnover in the crystallisation drop; NADP+ bound; modelled in subunit B as 2:1 mixture of 2-ketohexanoic acid and hydroxy acid

T1 sequence (Q2VEQ7 whole entry, the tested form may be a part): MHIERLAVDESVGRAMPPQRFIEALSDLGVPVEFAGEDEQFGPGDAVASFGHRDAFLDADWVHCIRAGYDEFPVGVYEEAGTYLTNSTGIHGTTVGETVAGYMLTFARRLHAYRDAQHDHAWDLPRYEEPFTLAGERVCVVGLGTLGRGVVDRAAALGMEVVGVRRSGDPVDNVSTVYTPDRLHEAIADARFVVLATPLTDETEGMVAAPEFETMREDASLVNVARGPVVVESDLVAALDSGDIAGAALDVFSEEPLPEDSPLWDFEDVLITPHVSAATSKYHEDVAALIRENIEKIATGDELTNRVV

CCCC[C@@H](O)C(=O)O [D-2-hydroxyhexanoic acid]
X-ray crystal structure, 1.57 Å: D-2-hydroxyhexanoic acid (beige carbons) bound to the active site of the D2HDH/NADP^+ complex
